What was measured:
[1] = tested on: sensitive German cockroaches (Blatella germanica); experiment: Cockroach knockdown and mortality in 24 m^3 test room (Example 3); format: in vivo; conditions: 1.0 g pesticidal component
Description: (§1) The insect pest control apparatus of the present invention was put at the center of the floor of the room, and two cups each containing 20 cockroaches were placed at each of the two opposite corners of the floor. The pesticidal component shown in Table 5 below was released from the apparatus for consecutive 24 hours. As test insects, sensitive German cockroaches (Blatella germanica) and sensitive smokybrown cockroaches (Periplaneta fuliginosa) were used.
(§2) The preparation-retaining material used was prepared by impregnating a honeycomb carrier (70×70×15 mm; FIG. 3) with 1.0 g of the pesticidal component.

[2] = tested on: sensitive smokybrown cockroaches (Periplaneta fuliginosa); experiment: as above; format: in vivo; conditions: 1.0 g pesticidal component
Description: as §1, §2

[3] = Vapor pressure measurement of pyrethroid compounds with the vapor pressure measuring apparatus

CC1(C)C(C=C(Cl)Cl)C1C(=O)OCc1c(F)c(F)cc(F)c1F (stereo not drawn) [benfluthrin, d-trans-2,3,5,6-tetrafluorobenzyl-3-(2,2-dichlorovinyl)-2,2-dimethyl-1-cyclopropanecarboxylate]
Knockdown Ratio (%) ([1]; 1 hr): 0%
Knockdown Ratio (%) ([1]; 2 hrs): 0%
Knockdown Ratio (%) ([1]; 4 hrs): 0%
Knockdown Ratio (%) ([1]; 24 hrs): 87.5%
Mortality at 48 hrs (%) ([1]; 48 hrs): 97.5%
Knockdown Ratio (%) ([2]; 1 hr): 0%
Knockdown Ratio (%) ([2]; 2 hrs): 0%
Knockdown Ratio (%) ([2]; 4 hrs): 5.0%
Knockdown Ratio (%) ([2]; 24 hrs): 6.3%
Mortality at 48 hrs (%) ([2]; 48 hrs): 7.5%
Vapor Pressure ([3]; 20° C.): 8.3 × 10^−5 mmHg
Vapor Pressure ([3]; 25° C.): 1.5 × 10^−4 mmHg
Vapor Pressure ([3]; 30° C.): 2.7 × 10^−4 mmHg
Vapor Pressure ([3]; 35° C.): 4.0 × 10^−4 mmHg
Vapor Pressure ([3]; 40° C.): 8.5 × 10^−4 mmHg

CC(C)=CC1C(C(=O)OCc2cccc(Oc3ccccc3)c2)C1(C)C (mixture of isomers) [phenothrin, 3-phenoxybenzyl-d-cis/trans-chrysanthemate]
Vapor Pressure ([3]; 20° C.): 1.2 × 10^−6 mmHg
Vapor Pressure ([3]; 25° C.): 2.2 × 10^−6 mmHg
Vapor Pressure ([3]; 30° C.): 4.3 × 10^−6 mmHg
Vapor Pressure ([3]; 35° C.): 7.7 × 10^−6 mmHg
Vapor Pressure ([3]; 40° C.): 1.4 × 10^−5 mmHg

CC1(C)C(C=C(Cl)Cl)C1C(=O)OCc1cccc(Oc2ccccc2)c1 (mixture of isomers) [permethrin, 3-phenoxybenzyl-dl-cis/trans-3-(2,2-dichlorovinyl)-2,2-dimethyl-1-cyclopropanecarboxylate]
Vapor Pressure ([3]; 20° C.): 5.5 × 10^−7 mmHg
Vapor Pressure ([3]; 25° C.): 1.1 × 10^−6 mmHg
Vapor Pressure ([3]; 30° C.): 1.9 × 10^−6 mmHg
Vapor Pressure ([3]; 35° C.): 3.6 × 10^−6 mmHg
Vapor Pressure ([3]; 40° C.): 6.3 × 10^−6 mmHg

CC(C)=CC1C(C(=O)OCN2C(=O)C3=C(CCCC3)C2=O)C1(C)C (mixture of isomers) [phthalthrin, (1,3,4,5,6,7-hexahydro-1,3-dioxo-2-isoindolyl)methyl dl-cis/trans-chrysanthemate]
Vapor Pressure ([3]; 20° C.): 3.5 × 10^−8 mmHg
Vapor Pressure ([3]; 25° C.): 6.6 × 10^−8 mmHg
Vapor Pressure ([3]; 30° C.): 1.2 × 10^−7 mmHg
Vapor Pressure ([3]; 35° C.): 2.2 × 10^−7 mmHg
Vapor Pressure ([3]; 40° C.): 3.8 × 10^−7 mmHg

CC(C)=CC1C(C(=O)OCN2C(=O)C3=C(CCCC3)C2=O)C1(C)C (stereo not shown) [tetramethrin]
Vapor Pressure ([3]; 20° C.): 2.4 × 10^−6 mmHg
Vapor Pressure ([3]; 25° C.): 4.4 × 10^−6 mmHg
Vapor Pressure ([3]; 30° C.): 8.5 × 10^−6 mmHg
Vapor Pressure ([3]; 35° C.): 1.7 × 10^−5 mmHg
Vapor Pressure ([3]; 40° C.): 3.2 × 10^−5 mmHg

CC(C)=CC1C(C(=O)OC(C#N)c2cccc(Oc3ccccc3)c2)C1(C)C (racemic) [cyphenothrin, (±) αa-cyano-3-phenoxybenzyl(+)-cis/trans-chrysanthemate]
Vapor Pressure ([3]; 20° C.): 9.2 × 10^−7 mmHg
Vapor Pressure ([3]; 25° C.): 1.9 × 10^−6 mmHg
Vapor Pressure ([3]; 30° C.): 3.6 × 10^−6 mmHg
Vapor Pressure ([3]; 35° C.): 6.6 × 10^−6 mmHg
Vapor Pressure ([3]; 40° C.): 1.3 × 10^−5 mmHg

From US6391329B1, “Insect pest control method” (Earth Chemical Co., Ltd., priority 1994, dated 2002)
